This note sets out measurements from patent US7052910B2, “Skeletal cell model to screen anti-diabetic compounds” (Council of Scientific and Industrial Research, priority 2001, dated 2006).

One assay concerns IRS-1. The assay is described as follows: Tyrosine phosphorylation and expression of IRS-1 in C2C12 myotubes differentiated in serum free medium without (MF) or with chronic insulin (MFI); immunoblot. It is filed as cell-based, mouse. Here is the method:
(§1) FIG. 5 represents the effect of insulin stimulation on control and chronically insulin-differentiated cells: Cells were stimulated with 100 nm of insulin for 5 min. Cell lysates were run on sodium dodecyl sulphate-7%-polyacrylamide gel electrophoresis (SDS-7%-PAGE) and were immunoblotted with antiphosphotyrosine antibody (A) or anti-IRS-1 antibody (C) or anti-IR-β antibody (E). Cell lysates were immunoprecipitated with antibodies to IRS-1 (B) or IR-β (D) and immunoblotted (IB) with antiphosphotyrosine antibody; and FIG. 6 represents the effect of pioglitazone on tyrosine phosphorylation of IRS-1 and IR-β: Pioglitazone was added at 50 μM concentration during the last day of differentiation for 24 hr. Then, the cells were stimulated with 100 nm of insulin for 5 min. Cell lysate were immunoblotted (IB) with antiphosphotyrosine antibody (A) or α-IRS-1 (B). Cell lysates of the samples prepared the same immunoprecipitated (IP) with antibodies and immunoblotted (IB) with antiphosphotyrosine (C) or anti-IR-β (D) antibodies. C2C12 cells were grown in DMEM (Dulbecco's Modified Eagle Medium) containing 15% FCS (fetal calf serum). The cells were differentiated in serum free medium in the absence or chronic presence of 100 nm insulin. After three days the differentiation was complete. […]

The subject of a further assay is IR-β. The experiment in a line: Tyrosine phosphorylation and expression of IR-β in C2C12 myotubes differentiated in serum free medium without (MF) or with chronic insulin (MFI); immunoprecipitation and immunoblot. It counts as cell-based, mouse. How it is done: as §1
In general terms: Immunoblotting shows a protein as a band on a membrane.

With insulin, in the assay on IRS-1 (C2C12 cells differentiated in chronic presence of 100 nm insulin (MFI), FIG. 5B), the “ability of IRS-1 to undergo tyrosine phosphorylation in response to insulin” value was “impaired”. The “tyrosine phosphorylation of IRS-1 (Mr 160–170 kDa protein)” value in the assay with IRS-1 (control (MF) C2C12 myotubes stimulated with 100 nm insulin for 5 min, FIG. 5A) is recorded as “insulin stimulated tyrosine phosphorylation”. Further, in the assay on IR-β (C2C12 cells differentiated in chronic presence of 100 nm insulin, FIG. 5E), the “expression of IR-β” value is “reduced”. The “tyrosine phosphorylation levels of IR” value with IR-β (MFI (chronic 100 nm insulin) versus MF differentiated C2C12 cells, FIG. 5D) is given as “Severe reduction”.
